Data as given in ChEMBL document CHEMBL1147490, “N-4-methansulfonamidobenzyl-N'-2-substituted-4-tert-butyl-benzyl thioureas as potent vanilloid receptor antagonistic ligands” (Bioorg Med Chem Lett, 2004).

Tests used:
Vanilloid receptor [1] = biological target: T1, Vanilloid receptor (Rattus norvegicus, UniProt Q9ERZ8+Q9WUD2+O35433); experiment: In vitro inhibitory concentration was determined against [45Ca2+]- influx in rat DRG neurons; type: functional
Vanilloid receptor [2] = biological target: T1, Vanilloid receptor; experiment: In vitro induction of 45 [Ca2+] influx in rat DRG neurons (ineffective at 30 uM, partial activity); type: functional

Row | SMILES | IC50 (Vanilloid receptor [1]) [nM] | EC50 (Vanilloid receptor [2])
1 | N/C(S)=N/N1CCCC1 | 3000 | –
2 | CC(C)(C)C(=O)OCc1cc(C(C)(C)C)ccc1C/N=C(\S)NCc1ccc(NS(C)(=O)=O)c(F)c1 | 15 | Partially active
3 | COc1cc(CC/N=C(\S)NCCc2ccccc2)ccc1O | 320 | –
4 | NC(=O)N1CCN(c2ccccn2)CC1 | 30 | –
5 | CC(=O)OCc1cc(C(C)(C)C)ccc1C/N=C(\S)NCc1ccc(NS(C)(=O)=O)cc1 | 580 | –
6 | C=C(C)[C@]12C[C@@H](C)[C@@]34O[C@](Cc5ccccc5)(O[C@@H]1[C@@H]3C=C(COC(=O)Cc1cc(I)c(O)c(OC)c1)C[C@]1(O)C(=O)C(C)=C[C@@H]41)O2 [IODORESINIFERATOXIN] | 4000 | –
7 | CC(C)(C)C(=O)OCc1cc(C(C)(C)C)ccc1C/N=C(\S)NCc1ccc(NS(C)(=O)=O)cc1 | 70 | –
8 | CCCCOc1cc(C(C)(C)C)ccc1C/N=C(\S)NCc1ccc(NS(C)(=O)=O)c(F)c1 | 20 | Partially active
9 | CC(C)(C)c1ccc(C/N=C(\S)NCc2ccc(NS(C)(=O)=O)cc2)c(OCc2ccccc2)c1 | 770 | –
10 | CC(C)(C)c1ccc(CNC(=S)NCc2ccc(NS(C)(=O)=O)c(F)c2)cc1 | – | Partially active
11 | CC(C)(C)C(=O)Oc1cc(C(C)(C)C)ccc1C/N=C(\S)NCc1ccc(NS(C)(=O)=O)cc1 | 220 | –
12 | CCCNCC(=O)N(CCC)CC(=O)N(CCC)CC(=O)O | 2000 | –
13 | CC(C)(C)COc1cc(C(C)(C)C)ccc1C/N=C(\S)NCc1ccc(NS(C)(=O)=O)c(F)c1 | 66 | Partially active
14 | Cc1cc(CN/C(S)=N/Cc2ccc(NS(C)(=O)=O)cc2)c(COC(=O)C(C)(C)C)cc1C | 70 | –

More lines, now with the values ahead:

Row | IC50 (Vanilloid receptor [1]) [nM] | EC50 (Vanilloid receptor [2]) | SMILES
15 | 250 | – | CCCOc1cc(C(C)(C)C)ccc1C/N=C(\S)NCc1ccc(NS(C)(=O)=O)cc1
16 | 2400 | – | COc1cc(C(C)(C)C)ccc1C/N=C(\S)NCc1ccc(NS(C)(=O)=O)cc1
17 | 60 | – | CCCCOc1cc(C(C)(C)C)ccc1C/N=C(\S)NCc1ccc(NS(C)(=O)=O)cc1
18 | 60 | – | CC(C)(C)COc1cc(C(C)(C)C)ccc1C/N=C(\S)NCc1ccc(NS(C)(=O)=O)cc1
19 | 1100 | – | CCOc1cc(C(C)(C)C)ccc1C/N=C(\S)NCc1ccc(NS(C)(=O)=O)cc1
20 | 350 | – | CC(C)Oc1cc(C(C)(C)C)ccc1C/N=C(\S)NCc1ccc(NS(C)(=O)=O)cc1
21 | 500 | – | COCOc1cc(C(C)(C)C)ccc1C/N=C(\S)NCc1ccc(NS(C)(=O)=O)cc1
22 | 150 | – | CCCCCCOc1cc(C(C)(C)C)ccc1C/N=C(\S)NCc1ccc(NS(C)(=O)=O)cc1
23 | 60 | – | COCCOc1cc(C(C)(C)C)ccc1C/N=C(\S)NCc1ccc(NS(C)(=O)=O)cc1
24 | 70 | – | CCCCCOc1cc(C(C)(C)C)ccc1C/N=C(\S)NCc1ccc(NS(C)(=O)=O)cc1
